# Measurements published in US6433167B1, “Triazolo-1,4-diazepine compounds and medicinal composition containing the same” (Nikken Chemicals Co., Ltd., priority 1997, dated 2002).
# Key:
# [1] = tested on: platelet activating factor (PAF)-induced aggregation of platelet rich plasma (PRP); assay: PAF antagonistic action test (PAF-induced platelet aggregation in platelet rich plasma); format: cell-based, Japanese white rabbits; conditions: test compound final concentration 10^−7M; PAF final concentration 17 nM; rabbit PRP, 37° C.
# Description: Japanese white rabbits (2.5 to 3.0 kg, Clean Experimental Animal Center) were used. Nine volumes of blood were taken with respect to one volume of 3.8% sodium citrate from the carotid under anesthesia by pentobarbitol. This was centrifuged at 1000 rpm and room temperature for 10 minutes. The top layer was used as the platelet rich plasma (PRP). The lower layer was further centrifuged at 3000 rpm and room temperature for 10 minutes to obtain the platelet poor plasma (PPP).
# 5 μl (final concentration 10^−7M) of the test compound was added to 90 μl of PRP. This was incubated at 37° C. for 3 minutes, then a platelet activating factor (PAF, final concentration 17 nM) was added to cause aggregation and the aggregation reaction was measured for 5 minutes using an aggrigometer (MC Medical, PAT-606).
# [2] = molecular target: T1, TxA2 synthesis in human blood platelet microsomes (Homo sapiens, UniProt P24557); assay: TxA2 synthesis inhibiting action test (TxB2 by EIA); format: biochemical; conditions: test compound final concentration 10^−7M, human blood platelet microsomes 50 μg protein/ml, prostaglandin H2 substrate
# T1 construct: containing human blood platelet microsomes (50 μg protein/ml); from tissue; host or cells: human blood platelet microsomes
# T1 sequence (P24557 1-533): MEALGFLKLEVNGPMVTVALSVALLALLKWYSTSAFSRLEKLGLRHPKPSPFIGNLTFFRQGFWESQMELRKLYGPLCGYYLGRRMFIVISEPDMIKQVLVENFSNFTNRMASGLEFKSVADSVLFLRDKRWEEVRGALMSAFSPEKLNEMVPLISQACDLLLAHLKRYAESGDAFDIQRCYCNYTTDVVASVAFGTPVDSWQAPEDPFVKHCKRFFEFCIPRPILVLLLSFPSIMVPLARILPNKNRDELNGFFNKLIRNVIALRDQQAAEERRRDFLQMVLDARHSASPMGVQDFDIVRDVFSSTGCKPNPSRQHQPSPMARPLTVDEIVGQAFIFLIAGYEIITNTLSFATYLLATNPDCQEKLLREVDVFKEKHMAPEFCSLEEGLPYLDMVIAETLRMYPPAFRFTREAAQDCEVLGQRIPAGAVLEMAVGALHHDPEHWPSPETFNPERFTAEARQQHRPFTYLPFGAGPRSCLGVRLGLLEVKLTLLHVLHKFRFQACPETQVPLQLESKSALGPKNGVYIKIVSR
# Description: 1 ml of a buffer (20 MM Tris-HCl buffer, 1 mM EDTA, pH 7.5) containing human blood platelet microsomes (50 μg protein/ml) and the test compound (final concentration 10^−7M) was agitated, then incubated at 0° C. for 30 minutes. To this was added prostaglandin H2 (100 ng/2 μl). This was incubated at 23° C. for 3 minutes to cause a reaction. Next, 1M hydrochloric acid was added to make the solution acidic and stop the reaction, then this was neutralized by 1M Tris-Base and centrifuged at 3000 rpm for 20 minutes. The amount of the TxB2 in the supernatant was measured by the EIA method (Cayman Co. kit).
# The test results are shown in Table II. a Further, as controls, UK-74,505 having a PAF antagonistic action and OKY-046 having a TxA2 synthesis inhibiting action were used.
# rats or mice = assay: Acute toxicity test; format: in vivo; conditions: administered intravenously, 10 mg/kg
Compound,PAF antagonistic action Rate of suppression at 10^−7 M (%) [1] [%],TxA2 synthesis inhibiting action Rate of suppression at 10^−7 M (%) [2] [%],Deaths after intravenous administration (rats or mice),inhibition at 0.1 µM ([2]; read-out: TxA2 synthesis inhibiting action Rate of suppression at 10^−7 M (%)) [%]
"CCOC(=O)C1=C(c2ccc(-n3c(C)nc4cnccc43)cc2)NC(C)=C(C(=O)Nc2ccccn2)C1c1ccccc1Cl (centres unmarked) [UK-74,505, reference compound]",89.0,0,,
"CCOC(=O)CCCCON=C(c1ccc(COCC(=O)N2CCc3c(sc4c3C(c3ccccc3Cl)=NC(C)c3nnc(C)n3-4)C2)cc1)c1cccnc1 (mixture of isomers) [Compound 6, 6-(2-Chlorophenyl)-3-[4-[((E/Z)-4-ethoxycarbonylbutyloxyimino)(3-pyridyl)methyl]phenylmethyloxymethylcarbonyl]-8,11-dimethyl-2,3,4,5-tetrahydro-8H-pyrido[4′,3′:4,5]thieno[3,2-f][1,2,4]triazolo[4,3-a][1,4]diazepine]",79.8,75.6,no deaths were observed,
"CCOC(=O)CCCCON=C(c1cccnc1)c1cccc(CN2CCc3c(sc4c3C(c3ccccc3Cl)=NC(C)c3nnc(C)n3-4)C2)c1 (mixture of isomers) [Compound 7, 6-(2-Chlorophenyl)-3-[3-[((E/Z)-4-ethoxycarbonylbutyloxyimino)(3-pyridyl)methyl]phenylmethyl]-8,11-dimethyl-2,3,4,5-tetrahydro-8H-pyrido[4′,3′:4,5]thieno[3,2-f][1,2,4]triazolo[4,3-a][1,4]diazepine]",94.0,58.2,,
"Cc1nnc2n1-c1sc3c(c1C(c1ccccc1Cl)=NC2C)CCN(Cc1cccc(C(=NOCCCCC(=O)O)c2cccnc2)c1)C3 (mixture of isomers) [Compound 8, 6-(2-Chlorophenyl)-3-[3-[((E/Z)-4-carboxydibutyloxyimino)(3-pyridyl)methyl]phenylmethyl]-8,11-dimethyl-2,3,4,5-tetrahydro-8H-pyrido[4′,3′:4,5]thieno[3,2-f][1,2,4]triazolo[4,3-a][1,4]diazepine]",52.0,81.7,,
"O=C(O)/C=C/c1ccc(Cn2ccnc2)cc1 [OKY-046, reference compound]",0,84.5,,
"CCOC(=O)CCCCON=C(c1cccnc1)c1ccccc1C(=O)N1CCc2c(sc3c2C(c2ccccc2Cl)=NC(C)c2nnc(C)n2-3)C1 (mixture of isomers) [Compound 1, 6-(2-Chlorophenyl)-3-[2-[((E/Z)-4-ethoxycarbonylbutyloxyimino)(3-pyridyl)methylene]phenylcarbonyl]-8,11-dimethyl-2,3,4,5-tetrahydro-8H-pyrido[4′,3′:4,5]thieno[3,2-f][1,2,4]triazolo[4,3-a][1,4]diazepine]",82.0,,,53
"CCOC(=O)CCCCC=C(c1ccc(CN2CCc3c(sc4c3C(c3ccccc3Cl)=NC(C)c3nnc(C)n3-4)C2)cc1)c1cccnc1 (mixture of isomers) [Compound 11, 6-(2-Chlorophenyl)-3-[4-[((E/Z)-5-ethoxycarbonylpentylidene)(3-pyridyl)methyl]phenylmethyl]-8,11-dimethyl-2,3,4,5-tetrahydro-8H-pyrido[4′,3′:4,5]thieno[3,2-f][1,2,4]triazolo[4,3-a][1,4]diazepine]",94.2,83.7,,
"CCOC(=O)CCCCON=C(c1cccnc1)c1cccc(CCCC(=O)N2CCc3c(sc4c3C(c3ccccc3Cl)=NC(C)c3nnc(C)n3-4)C2)c1 (mixture of isomers) [Compound 5, 6-(2-Chlorophenyl)-3-[3-[3-[((E/Z)-4-ethoxycarbonylbutyloxyimino)(3-pyridyl)methyl]phenyl]propylcarbonyl]-8,11-dimethyl-2,3,4,5-tetrahydro-8H-pyrido[4′,3′:4,5]thieno[3,2-f][1,2,4]triazolo[4,3-a][1,4]diazepine]",95.5,40.3,,
"CCOC(=O)CCCCON=C(c1ccc(CC(=O)N2CCc3c(sc4c3C(c3ccccc3Cl)=NC(C)c3nnc(C)n3-4)C2)cc1)c1cccnc1 (mixture of isomers) [Compound 4, 6-(2-Chlorophenyl)-3-[4-[((E/Z)-4-ethoxycarbonylbutyloxyimino)(3-pyridyl)methyl]phenylmethylcarbonyl]-8,11-dimethyl-2,3,4,5-tetrahydro-8H-pyrido[4′,3′:4,5]thieno[3,2-f](1,2,4]triazolo[4,3-a][1,4]diazepine]",94.6,79.6,no deaths were observed,
